Earlier results, collected in patent US10441593B2, “Treatment of pain associated with dislocation of endometrium” (PREGLEM S.A., priority 2010, dated 2019).

Tests used:
endometriosis = conditions: cited from earlier work
liver enzyme = conditions: clinical development program; 12.5 mg, 25 mg and 50 mg; cited from earlier work

COCC(=O)[C@@]1(OC(C)=O)CC[C@H]2[C@@H]3CCC4=CC(=O)CCC4=C3[C@@H](c3ccc(N(C)C)cc3)C[C@@]21C [Proellex]
days of pain compared with baseline (endometriosis; 50 mg group, end of the first months of therapy): statistically significant reduction in days of pain | dose response in treatment of endometriosis (endometriosis; 6 month study): clearly support a dose response | liver enzyme (sign of liver toxicity, DILI) (liver enzyme): dose related increase in liver enzyme
